In patent US9925263B2, “Liquid pharmaceutical formulations for injection comprising procaine and uses thereof” (EAGLE BIOLOGICS, INC., priority 2013, dated 2018):
Where a name gives a salt, the structure may show the parent alone. Values belong to the molecule of their own block, whether it stands above or below them.

Assays:
[1] = test system: biosimilar AVASTIN®; test: Viscosity of aqueous solutions of biosimilar AVASTIN® with viscosity-lowering agents; format: physicochemical
Experimental: (unless otherwise indicated).
The protein was formulated to contain either 0.25 M phosphate buffer or 0.25 M CSAL.
Subsequently, the appropriate amount of viscosity-lowering agent was added to result in a final viscosity-lowering agent concentration of 0.15-0.35 M upon reconstitution.
The viscosity-lowering agent(s) were added in an amount sufficient to give concentration upon reconstitution as specified below. In cases of combinations of agents, the concentration of each component is 0.15 M. The protein solutions were then freeze-dried.

[2] = test system: biosimilar ERBITUX®; test: Viscosity of aqueous solutions of biosimilar ERBITUX® with viscosity-lowering agents; conditions: for Fold Reduction: vs phosphate buffer
[3] = test system: biosimilar RITUXAN®; test: Viscosity of aqueous solutions of biosimilar RITUXAN® with viscosity-lowering agents; conditions: 25° C.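 Note: absolute viscosity of aqueous antibody solutions determined by microfluidic viscometry (mVROC chip, 50 micron channel) at several flow rates after 5 min equilibration, mean of at least three readings.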
Experimental: All viscosities of well-mixed aqueous mAb solutions were measured using either a mVROC microfluidic viscometer (RheoSense) or a DV2T cone and plate viscometer (Brookfield; “C & P”) after a 5 minute equilibration at 25° C. […] The mVROC viscometer was equipped with an “A” or “B” chip, each manufactured with a 50 micron channel. Typically, 0.10 mL of protein solution was back-loaded into a gastight microlab instrument syringe (Hamilton; 100 μL), affixed to the chip, and measured at multiple flow rates, approximately 20%, 40%, and 60% of the maximum pressure for each chip. […] An average absolute viscosity and standard deviation was then calculated from at least these three measurements. The C & P viscometer was equipped with a CPE40 or CPE52 spindle (cone angle of 0.8° and 3.0°, respectively) and 0.50 mL samples were measured at multiple shear rates between 2 and 400 s^−1. […] An extrapolated zero-shear viscosity was then determined from a plot of dynamic viscosity versus shear rate for the samples measured on a DV2T cone and plate viscometer. The extrapolated zero-shear viscosities reported are the average and standard deviation of at least three measurements.
Viscosities were measured using a RheoSense mVROC microfluidic viscometer equipped with an “A” or “B” chip.

[4] = 222 ± 5 mg/mL mAb, pH 7.0, 0.25M agent, 25° C.
[5] = 225 ± 5 mg/mL mAb, pH 7.0, 0.25M agent, 20° C.
[6] = 225 ± 5 mg/mL mAb, pH 7.0, 0.25M agent, 25° C.
[7] = 225 ± 5 mg/mL mAb, pH 7.0, 0.25M agent, 30° C.
[8] = 200 ± 5 mg/mL mAb, pH 7.0, 25° C., [Salt] 0.25 M of anion, C & P viscometer
[9] = 200 ± 5 mg/mL mAb, pH 7.0, 25° C., [Salt] […] of anion, C & P viscometer
[10] = 229 mg/mL mAb, […] agent, pH 7.0, 25° C., microfluidic
[11] = 221 mg/mL mAb, […] agent, pH 7.0, 25° C., microfluidic
[12] = 230 mg/mL mAb, agent […], 25° C.
[13] = 206 mg/mL mAb, agent […], 25° C.
[14] = 225 mg/mL mAb, agent […], 25° C.
[15] = 228 ± 5 mg/mL mAb, agent 0.25 M, 25° C., pH 7.0
[16] = 200 ± 5 mg/mL mAb, pH 7.0, 25° C., [Salt] 0.35 M of anion, C & P viscometer

Molecule: Cc1nccn1CCCN.Cl.Cl [APMI*2HCl, 1-(3-aminopropyl)-2-methyl-1H-imidazole dihydrochloride]
- Viscosity-lowering effect as a function of agent concentration ([1]; 0.10 vs 0.25 M APMI*2HCl, FIG. 7): viscosity-lowering effect was increased

Molecule: C[C@H]1[C@H](NC(=O)/C(=N\OC(C)(C)C(=O)O)c2csc(N)n2)C(=O)N1S(=O)(=O)O [Aztreonam, reference compound]
- Viscosity ([2]; 179 mg/mL mAb, 0.02M agent, 25° C.): 256 ± 4 cP

Molecule: NCCCC[C@H](N)C(=O)O.O=S(=O)(O)c1ccccc1 [BSAL, benzenesulfonic acid lysine]
- Viscosity ([1]; 230 ± 5 mg/mL mAb, pH 7.0, […], 20° C.): 395 ± 3 cP
- Viscosity ([1]; 230 ± 5 mg/mL mAb, pH 7.0, […], 25° C.): 227 ± 5 cP
- Viscosity [2, 4]: 126 ± 1 cP
- Viscosity [2, 5]: 193 ± 0 cP
- Viscosity [2, 6]: 126 ± 1 cP
- Viscosity [2, 7]: 89.8 ± 0.8 cP

Molecule: N=C(N)NCCC[C@H](N)C(=O)O.O=C(O)c1ccccc1 [Benzoic acid arginine]
- Viscosity [1, 8]: 51.4 ± 0.5 cP
- Viscosity [1, 9]: 52.2 ± 0.5 cP

Molecule: CC1(C)C2CCC1(CS(=O)(=O)O)C(=O)C2.OCCN(CCO)CCO (stereo not drawn) [CSA Triethanolamine]
- Viscosity ([1]; 238 mg/mL mAb, agent […], 25° C.): 144 ± 1 cP

Molecule: CC1(C)C2CCC1(CS(=O)(=O)O)C(=O)C2.N=C(N)NOCC[C@H](N)C(=O)O (stereo not drawn) [CSA canavanine]
- Viscosity [1, 8]: 75.6 ± 3.0 cP
- Viscosity [1, 9]: 60.5 ± 0.6 cP

Molecule: CC1(C)C2CCC1(CS(=O)(=O)O)C(=O)C2.Nc1ccncc1 (stereo not drawn) [CSA-4-aminopyridine]
- Viscosity [1, 10]: 86.4 ± 1.1 cP
- Viscosity ([3]; 195 mg/mL mAb, […] agent): 47.0 ± 1.4 cP
- Viscosity ([3]; 233 mg/mL mAb, […] agent): 66.5 ± 0.8 cP

Molecule: CCN(CC)CC(=O)Nc1c(C)cccc1C [Lidocaine HCl, reference compound]
- Viscosity ([1]; 218 mg/mL mAb, agent […], 25° C.): 147 ± 15 cP
- Viscosity ([1]; 237 mg/mL mAb, agent […], 25° C.): 97.3 ± 1.8 cP
- Viscosity ([2]; 223 mg/mL mAb, […] agent, 25° C.): 33.8 ± 0.4 cP

Molecule: NCCCC[C@H](N)C(=O)O [Lysine•HCl, reference compound]
- Viscosity [1, 8]: 137 ± 2 cP
- Viscosity [2, 4]: 128 ± 2 cP
- Fold Reduction [2, 4]: 8.8 fold

Molecule: CS(=O)(=O)O.N=C(N)NCCC[C@H](N)C(=O)O [MSA arginine]
- Viscosity [1, 8]: 93.1 ± 0.9 cP

Molecule: [Cl-].[Na+] [NaCl, reference compound]
- Viscosity [1, 8]: 121 ± 8 cP

Molecule: ClC=CC[N+]12CN3CN(CN(C3)C1)C2.[Cl-] [Quaternium 15]
- Viscosity ([3]; 221 mg/mL mAb, […] agent): 135 ± 5 cP

Molecule: CSA betaine
- Viscosity [1, 8]: 66.0 ± 0.7 cP

Molecule: CSA carnitine
- Viscosity [1, 8]: 72.4 ± 1.7 cP

Molecule: Chlorotheophylline arginine
- Viscosity [1, 8]: 104.5 ± 6.5 cP

Molecule: Ethandisulfonate diarginine
- Viscosity [1, 8]: 105 ± 4 cP
- Viscosity [1, 9]: 77.1 ± 0.3 cP

Molecule: Sulfosalicylic acid dilysine
- Viscosity [1, 15]: 73.4 ± 0.4 cP

Molecule: Toluenesulfonic acid arginine
- Viscosity [1, 8]: 159 ± 5 cP

Molecule: Toluenesulfonic acid lysine
- Viscosity [1, 8]: 118 ± 1 cP

Molecule: naphthalenesulfonic acid arginine [NSAA]
- Viscosity [2, 4]: 69.4 ± 0.6 cP
- Viscosity [2, 5]: 103 ± 0 cP
- Viscosity [2, 6]: 69.4 ± 0.6 cP
- Viscosity [2, 7]: 60.9 ± 4.3 cP
- Fold Reduction [2, 4]: 16.3 fold

More lines, now with the values ahead:

- Viscosity [1, 10]: 60.6 ± 1 cP
- Viscosity ([3]; 206 mg/mL mAb, […] agent): 65.1 ± 1.8 cP
Molecule: Cc1nnc(SCC2=C(C(=O)O)N3C(=O)[C@@H](NC(=O)Cn4cnnn4)[C@H]3SC2)s1 [Cefazolin, reference compound]

- Viscosity ([2]; 194 mg/mL mAb, […] agent, 25° C.): 166 ± 8 cP
Molecule: CO[C@@]1(NC(=O)Cc2cccs2)C(=O)N2C(C(=O)O)=C(COC(N)=O)CS[C@@H]21 [Cefoxitin sodium salt, reference compound]

- Viscosity ([1]; 210 mg/mL mAb, agent 0.02M, 25° C.): 121 ± 2 cP
- Viscosity ([2]; 189 mg/mL mAb, 0.02M agent, 25° C.): 284 ± 5 cP
Molecule: Nc1ccn(C[C@@H](CO)OCP(=O)(O)O)c(=O)n1 [Cidofovir hydrate, reference compound]

- Viscosity ([2]; 188 mg/mL mAb, […] agent, 25° C.): 119 ± 2 cP
Molecule: O=C1NC(c2ccccc2)(c2ccccc2)C(=O)N1COP(=O)(O)O [Fosphenytoin disodium salt, reference compound]

- Viscosity [1, 11]: 151 ± 5 cP
- Viscosity ([1]; 221 mg/mL mAb, […] agent, pH 7.0, 25° C., microfluidic, listed as Glucuronic acid-Tris): 151 ± 5.0 cP
- Viscosity ([3]; 207 mg/mL mAb, […] agent): 149 ± 13 cP
Molecule: NC(CO)(CO)CO.O=C[C@H](O)[C@@H](O)[C@H](O)[C@H](O)C(=O)O [Glucuronic acid-tris]

- Viscosity ([1]; 223 mg/mL mAb, agent […], 25° C.): 129 ± 3 cP
- Viscosity ([3]; 185 mg/mL mAb, […] agent): 46.8 ± 0.6 cP
Molecule: Cc1cccc(C)c1NC(=O)C1CCCCN1C (stereo not drawn) [Mepivacaine HCl, reference compound]

- Viscosity [1, 12]: 64.4 ± 1.6 cP
- Viscosity ([3]; 194 mg/mL mAb, […] agent): 39.3 ± 0.4 cP
Molecule: CCN(CC)CCNC(=O)c1cc(Cl)c(N)cc1OC [Metoclopramide HCl, reference compound]

- Viscosity ([2]; 186 mg/mL mAb, […] agent, 25° C.): 66.7 ± 1.0 cP
Molecule: COc1c(N2C[C@@H]3CCCN[C@@H]3C2)c(F)cc2c(=O)c(C(=O)O)cn(C3CC3)c12 [Moxifloxacin HCl, reference compound]

- Viscosity [1, 11]: 68.5 ± 1.1 cP
Molecule: Cl.[Cl-].c1cc[n+](-c2ccncc2)cc1 [N-(4-Pyridiyl)pyridinium Cl HCl]

- Viscosity ([2]; 232 mg/mL mAb, […] agent, 25° C.): 292 ± 10 cP
Molecule: NC(=O)c1cccnc1 [Nicotinamide]

- Viscosity ([1]; 201 mg/mL mAb, agent […], 25° C.): 108 ± 1 cP
- Viscosity ([2]; 183 mg/mL mAb, […] agent, 25° C.): 54.1 ± 2.9 cP
Molecule: CNC[C@H](O)c1cccc(O)c1 [Phenylephrine HCl, reference compound]

- Viscosity [1, 13]: 197 ± 5 cP
- Viscosity ([3]; 194 mg/mL mAb, […] agent): 127 ± 2 cP
Molecule: CCN1CCN(C(=O)N[C@@H](C(=O)N[C@@H]2C(=O)N3[C@@H]2SC(C)(C)[C@@H]3C(=O)O)c2ccccc2)C(=O)C1=O [Piperacillin sodium salt, reference compound]

- Viscosity ([1]; 227 mg/mL mAb, agent […], 25° C.): 107 ± 0 cP
Molecule: Cc1ncc(CO)c(CO)c1O [Pyridoxine]

- Viscosity [1, 14]: 131 ± 4 cP
- Viscosity ([2]; 237 mg/mL mAb, 0.10M agent, 25° C.): 492 ± 9 cP
Molecule: Cc1cc2nc3c(=O)[nH]c(=O)nc-3n(C[C@H](O)[C@H](O)[C@H](O)COP(=O)([O-])O)c2cc1C.[Na+] [Riboflavin-5-phosphate]

- Viscosity [1, 12]: 147 ± 4 cP
- Viscosity ([3]; 234 mg/mL mAb, […] agent): 111 ± 8 cP
Molecule: OC[C@H]1O[C@H](O[C@]2(CCl)O[C@H](CCl)[C@@H](O)[C@@H]2O)[C@H](O)[C@@H](O)[C@H]1Cl [Sucralose]

- Viscosity ([1]; 214 mg/mL mAb, agent […], 25° C.): 113 ± 1 cP
Molecule: CC(=O)[N-]S(=O)(=O)c1ccc(N)cc1.[Na+] [Sulfacetamide-Na, reference compound]

- Viscosity ([1]; 212 mg/mL mAb, agent 0.25M, 25° C.): 93.2 ± 2.7 cP
Molecule: CNS(=O)(=O)Cc1ccc2[nH]cc(CCN(C)C)c2c1 [Sumatriptan Succinate, reference compound]

- Viscosity ([1]; 211 mg/mL mAb, agent […], 25° C.): 121 ± 6 cP
- Viscosity ([3]; 199 mg/mL mAb, […] agent): 126 ± 3.3 cP
Molecule: O=P1([O-])OP(=O)([O-])OP(=O)([O-])O1.[Na+].[Na+].[Na+] [Trimetaphosphate-3Na]

- Viscosity ([1]; 210 mg/mL mAb, 0.25 M agent, 25° C., pH 7.0): 40.9 ± 0.5 cP
- Viscosity [1, 15]: 71.8 ± 3.2 cP
Molecule: CSA 1-(3-aminopropyl)-2-methyl-1H-imidazole [CSAAPMI-2HCl]

- Viscosity [1, 8]: 47.4 ± 1.3 cP
- Viscosity [1, 16]: 51.7 ± 0.9 cP
Molecule: CSA dimethylpiperazine

- Viscosity ([1]; 228 mg/mL mAb, agent […], 25° C.): 121 ± 1 cP
- Viscosity ([3]; 190 mg/mL mAb, […] agent): 40.4 ± 1.9 cP
Molecule: CSA-1-o-tolybiguanide

- Viscosity ([1]; 202 mg/mL mAb, agent […], 25° C.): 38.4 ± 0.9 cP
- Viscosity ([3]; 190 mg/mL mAb, 0.3M agent): 33.3 ± 1.1 cP
Molecule: CSA-Na-Creatinine

- Viscosity [1, 14]: 69.2 ± 3.7 cP
- Viscosity ([3]; 191 mg/mL mAb, […] agent): 61.3 ± 2.5 cP
Molecule: CSA-Na-aminocyclohexane carboxylic acid

- Viscosity ([1]; 197 mg/mL mAb, agent […], 25° C.): 50 ± 1 cP
- Viscosity [1, 13]: 64.4 ± 1.4 cP
- Viscosity ([3]; 191 mg/mL mAb, […] agent): 59.1 ± 0.7 cP
Molecule: CSA-Tris

- Viscosity ([1]; 228 ± 5 mg/mL mAb, agent […], 25° C., pH 7.0): 83.7 ± 2.2 cP
- Viscosity reduction ([1]; ~230 mg/mL mAb, vs PB, Table 12): approximately 5 fold
Molecule: CSAthiamine-2NaCl

- Viscosity [1, 8]: 85.5 ± 5.2 cP
- Viscosity [1, 16]: 65.6 ± 1.6 cP
Molecule: diCSA cadaverine
